Assay results taken from publication PMC11508334, “In Vitro Evaluation of New 5-Nitroindazolin-3-one Derivatives as Promising Agents against Trypanosoma cruzi” (International Journal of Molecular Sciences, 2024).

How the values were obtained:
[1] = Cyclic voltammetry, reduction of nitro group; type: physicochemical; conditions: for −EpaIII: anodic peak potential of couple IIIc/IIIa; for −EpaIII / −EpcIII / −E1/2: given with inverted sign, vs. Ag/AgCl electrode in DMSO; for −EpcIII: cathodic peak potential of couple IIIc/IIIa; for Ipa/Ipc: current ratio RNO2/RNO2•−, couple IIIc/IIIa, DMSO; for −E1/2: half-wave potential of couple IIIc/IIIa
Procedure: Cyclic Voltammetry (CV) was carried out using a Metrohm Autolab instrument model PGSTAT204, using dimethyl sulfoxide (DMSO) as the solvent (1 mM solutions), tetrabutylammonium perchlorate (0.1 M TBAP) as the supporting electrolyte, a hanging drop mercury electrode (HDME) as the working electrode, Ag/AgCl (3M KCl) as the reference electrode, and a graphite rod as the counter electrode. All measurements were performed after bubbling with nitrogen (N2) for 10 min.
Using Nicholson’s procedure, the Ipa/Ipc values (RNO2/RNO2^•−) were measured from each cyclic voltammogram with a scan rate between 0.1 and 2.5 V/s.

[2] = test system: Dm28c trypomastigotes; assay: Trypomastigote viability study (MTT); type: cell-based, Trypanosoma cruzi; conditions: for SI Trypomastigote: Selectivity Index IC50 macrophages RAW 264.7/IC50 trypomastigotes Dm28c; for IC50: Trypanosoma cruzi, T. cruzi Dm28c trypomastigotes, 24 h, MTT
Procedure: Vero cells (ATCC CCL-81) were infected with Dm28c trypomastigotes at a 1:3 (cell: parasite) ratio. T. cruzi trypomastigotes were initially obtained from primary cultures of peritoneal macrophage from chagasic mice. […] Vero cell cultures were then infected with trypomastigotes and incubated at 37 °C in humidified air and 5% CO2 for 5–7 days. After that time, the culture medium was collected and centrifuged at 500× g for 5 min. The trypomastigote-containing pellet was re-suspended in RPMI 1640 supplemented with inactivated FBS and penicillin–streptomycin at a final 1 × 10^7 parasites/mL density. Trypomastigote viability assays were performed using the MTT reduction method as described previously. Then, 1 × 10^7 parasites/mL was incubated in RPMI 1640 with inactivated FBS at 37 °C for 24 h with or without the studied compounds.

[3] = test system: T. cruzi epimastigote stage (Dm28c strain); assay: Epimastigotes viability study (MTT); type: cell-based, Trypanosoma cruzi; conditions: for SI Epimastigote: Selectivity Index IC50 macrophages RAW 264.7/IC50 epimastigotes Dm28c; for IC50: Trypanosoma cruzi, T. cruzi Dm28c epimastigotes, 24 h, MTT
Procedure: The trypanocidal activity was evaluated against the T. cruzi epimastigote stage (Dm28c strain). It was measured through the MTT assay using 0.22 mg/mL phenazine methosulfate (as an electron carrier). T. cruzi epimastigote from the author's collection (Programa de Farmacología Molecular y Clínica, Facultad de Medicina, Universidad de Chile, Santiago, Chile) were grown at 28 °C in liver infusion tryptase (LIT) medium, as reported earlier, but replacing blood with 4 μM hemin. […] fetal bovine serum (FBS) was added to a final concentration of 10% v/v. In this colorimetric assay for testing the trypanocidal activity, the compounds were dissolved in DMSO. They were added to 3 × 10^6 parasites/mL at 100 μM final concentrations in RPMI 1640 culture medium without phenol red for 24 h at 28 °C. The final concentration of DMSO was less than 0.1% v/v. […] The MTT assay, which was described previously, determined the viability of the epimastigotes.

[4] = test system: RAW 264.7 cells; assay: Cytotoxicity MTT assay on RAW 264.7 cells; type: cell-based; conditions: Mus musculus, RAW264.7, in vitro cytotoxicity, murine RAW 264.7 macrophages
Procedure: The compounds under study, dissolved in dimethylsulfoxide (DMSO), were added to the culture media at 10–200 μM. RAW 264.7 cells were cultured in 96-well plates (5 × 10^4 cells per well), and 100 μL of 0.5 mg/mL MTT was added to each well. The DMSO final concentration was less than 0.1% v/v. After incubation for 4 h at 37 °C, the generated water-insoluble formazan dye was dissolved by adding 100 μL of 10% w/v sodium dodecyl sulfate (SDS) in 0.01 M HCl. The plates were further incubated overnight at 37 °C; […] 0.5% of Triton X-100 was added as a positive control. The plates were further incubated overnight at 37 °C, and the optical density of the wells was determined using a microplate reader (Asys Expert Plus©, Asys Hitachi, Vienna, Austria) at 570 nm. Under these conditions, the optical density is directly proportional to the viable cell number in each well. All experiments were performed at least thrice and data were reported as means and their standard deviations from triplicate cultures. Results are reported as IC50 regarding the control (uninfected cells in culture medium)

Structure (SMILES) | −EpaIII [1] [V] | −EpcIII [1] [V] | Ipa/Ipc [1] | −E1/2 [1] [V] | SI Trypomastigote [2] | IC50 [2] [µM] | SI Epimastigote [3] | IC50 [3] [µM] | IC50 [4] [µM] | melting point [°C]
O=C(Cn1ccnc1[N+](=O)[O-])NCc1ccccc1 [BNZ, benznidazole, reference compound] | 0.93 | 1.08 | 0.98 | 1.00 | – | – | – | – | – | –
O=c1c2cc([N+](=O)[O-])ccc2[nH]n1-c1ccccc1 [Compound 4] | 1.27 | 1.37 | 0.63 | 1.32 | 1.5 | 63.4 ± 1.4 | 2.1 | 46.9 ± 3.4 | 97.5 ± 1.2 | –
Cn1c2ccc([N+](=O)[O-])cc2c(=O)n1Cc1ccccc1F [Compound 6] | 0.94 | 1.22 | 0.99 | 1.08 | 1.5 | 56.4 ± 1.5 | 2.6 | 32.9 ± 0.7 | 83.9 ± 0.9 | –
Cn1c2ccc([N+](=O)[O-])cc2c(=O)n1Cc1cccc(F)c1 [Compound 7, 2-(3-Fluorobenzyl)-1-methyl-5-nitro-1,2-dihydro-3H-indazol-3-one] | 0.98 | 1.20 | 1.00 | 1.09 | 2.3 | 41.2 ± 0.8 | 3.2 | 29.5 ± 1.5 | 95.1 ± 1.1 | 125 to 127
Cn1c2ccc([N+](=O)[O-])cc2c(=O)n1Cc1ccc(F)cc1 [Compound 8, 2-(4-Fluorobenzyl)-1-methyl-5-nitro-1,2-dihydro-3H-indazol-3-one] | 0.99 | 1.14 | 1.00 | 1.07 | 2.0 | 57.8 ± 1.3 | 3.2 | 36.4 ± 0.8 | 116 ± 1.7 | 139 to 141
Cn1c2ccc([N+](=O)[O-])cc2c(=O)n1Cc1ccccc1Cl [Compound 9, 2-(2-Chlorobenzyl)-1-methyl-5-nitro-1,2-dihydro-3H-indazol-3-one] | 1.02 | 1.10 | 0.96 | 1.06 | 2.8 | 61.6 ± 1.4 | 4.0 | 43.7 ± 2 | 176 ± 2.3 | 179 to 181
Cn1c2ccc([N+](=O)[O-])cc2c(=O)n1Cc1cccc(Cl)c1 [Compound 10, 2-(3-Chlorobenzyl)-1-methyl-5-nitro-1,2-dihydro-3H-indazol-3-one] | 0.96 | 1.17 | 0.93 | 1.07 | >3.7 | 54.2 ± 1.1 | >5.0 | 40.3 ± 2 | > 200 | 154 to 156
Cn1c2ccc([N+](=O)[O-])cc2c(=O)n1Cc1ccccc1Br [Compound 12, 2-(2-Bromobenzyl)-1-methyl-5-nitro-1,2-dihydro-3H-indazol-3-one] | 0.96 | 1.17 | 1.00 | 1.07 | 1.4 | 52.5 ± 1.3 | 2.4 | 30.3 ± 1.1 | 72.4 ± 1.6 | 182 to 184
Cn1c2ccc([N+](=O)[O-])cc2c(=O)n1Cc1ccc(Br)cc1 [Compound 14, 2-(4-Bromobenzyl)-1-methyl-5-nitro-1,2-dihydro-3H-indazol-3-one] | 0.99 | 1.20 | 0.94 | 1.10 | 3.5 | 48.6 ± 1.2 | 2.1 | 83.9 ± 1.9 | 172 ± 2.3 | 144 to 146
COc1ccc(Cn2c(=O)c3cc([N+](=O)[O-])ccc3n2C)cc1 [Compound 16, 2-(4-Methoxybenzyl)-1-methyl-5-nitro-1,2-dihydro-3H-indazol-3-one] | 1.03 | 1.15 | 0.91 | 1.09 | – | > 100 | – | > 100 | > 200 | 139 to 141
Cn1c2ccc([N+](=O)[O-])cc2c(=O)n1Cc1ccccc1C(F)(F)F [Compound 17, 1-Methyl-5-nitro-2-[2-(trifluoromethyl)benzyl]-1,2-dihydro-3H-indazol-3-one] | 0.82 | 1.37 | 0.96 | 1.10 | 1.9 | 89.3 ± 1 | 4.7 | 35.4 ± 1.1 | 166 ± 2.3 | 211 to 213
CC(c1ccccc1)n1c(=O)c2cc([N+](=O)[O-])ccc2n1C (stereo not shown) [Compound 18, 1-Methyl-5-nitro-2-(1-phenylethyl)-1,2-dihydro-3H-indazol-3-one] | 1.02 | 1.12 | 0.91 | 1.07 | – | > 100 | >2.9 | 68.7 ± 1.7 | > 200 | 155 to 157
Cn1nc(O)c2cc([N+](=O)[O-])ccc21 [Compound 19, 1-methyl-5-nitroindazol-3-ol] | 1.28 | 1.35 | 0.65 | 1.32 | – | > 100 | – | > 100 | > 200 | –
O=[N+]([O-])c1ccc2c(c1)c(O)nn2CCCCCO [Compound 20] | 1.28 | 1.38 | 0.67 | 1.33 | – | > 100 | – | > 100 | > 200 | –
O=[N+]([O-])c1ccc2c(c1)c(O)nn2CCCCCCCl [Compound 21] | 1.27 | 1.37 | 0.56 | 1.32 | >2.1 | 91.2 ± 2.2 | >2.4 | 84.3 ± 2.1 | > 200 | –
COc1nn(C)c2ccc([N+](=O)[O-])cc12 [Compound 23] | 1.25 | 1.37 | 0.78 | 1.31 | – | > 100 | – | > 100 | > 200 | –
CC1CS(=O)(=O)CCN1/N=C/c1ccc([N+](=O)[O-])o1 (stereo not shown) [NFX, nifurtimox, reference compound] | 0.85 | 0.91 | 1.01 | 0.88 | 12.3 | 21.5 ± 1.4 | 15.1 | 17.4 ± 1.3 | 263.4 ± 2.2 | –
